Columns and labels:
Assay type in all cases: in vivo
[1] = system: Setaria viridis; experiment: Post-emergence herbicidal activity, visual damage score 0-100; details: Table 4; 7-day old plants; 0.8 ml per 80 cm^2 pot; scored 13 days after application; average of five pots; synthetic Rhein 1 gram/liter (1000 g/ha)
Description: (§1) Damage assessment: Herbicidal activity was assessed and scored by visual inspection of the plants in comparison to plants treated with the formulation alone (with no plant extract) as control. Activity score is in the range of 0 to 100, where 0 represents no herbicidal activity like control plants and 100 represents the maximal herbicidal activity (i.e., total death of the plant).
(§2) The herbicidal activity of Rhein-containing extracts was determined by post-emergence application on 8-day old plants (weeds) of the Amaranthus palmeri and Setaria viridis species that were grown at 16 hours/8 hours day/night cycles at 30° C./25° C., respectively. Leaf stage was typically 4-6 for A. palmeri and 3-4 for S. viridis. […]
(§3) Herbicidal activity was assessed and scored 4 days after application by visual inspection of the plants in comparison to plants treated with the control solution alone (with no active ingredient). […]
(§4) Herbicidal activity of extract sample A-1b was determined by post-emergence application on 8-day old plants (weeds) of the A. palmeri and S. viridis species and 11-day old plants (weeds) of Abutilon theophrasti, Solanum nigrum, Echinochloa colonum, Phalaris canarinesis and Lolium multiflorum that were grown at 16 hours/8 hours day/night cycles at 30° C./25° C., respectively. […]
(§5) Herbicidal activity was assessed and scored 13 days after application, as described hereinabove. […]

[2] = system: Solanum nigrum; experiment: Post-emergence weed panel, visual damage score 0-100; details: Table 4; 8-day old plants; 0.8 ml per 80 cm^2 pot; scored 13 days after application; average of five pots; synthetic Rhein 1 gram/liter (1000 g/ha)
Description: Damage assessment: Herbicidal activity was assessed and scored by visual inspection of the plants in comparison to plants treated with the formulation alone (with no plant extract) as control. Activity score is in the range of 0 to 100, where 0 represents no herbicidal activity like control plants and 100 represents the maximal herbicidal activity (i.e., total death of the plant). Herbicidal activity of extract sample A-1b was determined by post-emergence application on 8-day old plants (weeds) of the A. palmeri and S. viridis species and 11-day old plants (weeds) of Abutilon theophrasti, Solanum nigrum, Echinochloa colonum, Phalaris canarinesis and Lolium multiflorum that were grown at 16 hours/8 hours day/night cycles at 30° C./25° C., respectively. Leaf stage was typically 4-6 for A. palmeri, 3-4 for S. viridis, 3 for A. theophrasti and S. nigrum, 4 for E. colonum, and 2 for P. canarinesis and L. multiflorum. […] Herbicidal activity was assessed and scored 3 days after application, as described hereinabove. Herbicidal activity was determined by post-emergence application on 7-day old plants (weeds) of the A. palmeri and S. viridis species and 8-day old plants (weeds) of S. nigrum, and C. quinoa that were grown at 16 hours/8 hours day/night cycles at 30° C./25° C., respectively. […] Herbicidal activity was assessed and scored 13 days after application, as described hereinabove.

[3] = system: Chenopodium quinoa; experiment: as above; details: Table 4; 8-day old plants; 0.8 ml per 80 cm^2 pot; scored 13 days after application; average of five pots; synthetic Rhein 1 gram/liter (1000 g/ha)
Description: Damage assessment: Herbicidal activity was assessed and scored by visual inspection of the plants in comparison to plants treated with the formulation alone (with no plant extract) as control. Activity score is in the range of 0 to 100, where 0 represents no herbicidal activity like control plants and 100 represents the maximal herbicidal activity (i.e., total death of the plant). Herbicidal activity was determined by post-emergence application on 7-day old plants (weeds) of the A. palmeri and S. viridis species and 8-day old plants (weeds) of S. nigrum, and C. quinoa that were grown at 16 hours/8 hours day/night cycles at 30° C./25° C., respectively. Leaf stage was typically 4-6 for A. palmeri, 3-4 for S. viridis, and 4 for S. nigrum and C. quinoa. Each treatment contained five 80 cm^2 pots, each containing about 4 plants of one of the tested weed species. Each pot was sprayed with 0.8 ml of either: • 1. the exemplary extract sample A-1b, in which plant source A powder was mixed with solution 1b for 1.5 hours before filtration, or • 2. 1 gram/liter synthetic Rhein molecule dissolved in 2% MIPA, 2% DASH and 0.25% Genapol solution, which is equivalent to 1000 g/ha. Herbicidal activity was assessed and scored 13 days after application, as described hereinabove.

[4] = system: Amaranthus palmeri; experiment: Post-emergence herbicidal activity, visual damage score 0-100; details: Table 4; 7-day old plants; 0.8 ml per 80 cm^2 pot; scored 13 days after application; average of five pots; synthetic Rhein 1 gram/liter (1000 g/ha) in 2% MIPA, 2% DASH, 0.25% Genapol
Description: as §1, §2, §3, §4, §5

## O=C(O)c1cc(O)c2c(c1)C(=O)c1cccc(O)c1C2=O [Synthetic Rhein, Rhein]
[1]
  Score (Setaria viridis): 97
[2]
  Score (Solanum nigrum): 100
[3]
  Score (Chenopodium quinoa): 100
[4]
  Score (Amaranthus palmeri): 100

From patent US20260215419A1, “PLANT EXTRACTS WITH HERBICIDAL ACTIVITY” (Agrematch Ltd., priority 2023, published 2026)
